Source: patent US11957783B2, “Topical immunosensitizers to treat viral and fungal infections” (Squarex, LLC, priority 2018, dated 2024)

Columns and labels:
[1] = test system: peripheral blood mononuclear cells (PBMC); test: PBMC proliferation in vitro (tritiated thymidine incorporation), Example 1; format: cell-based, human; conditions: for PBMC Percent proliferation, normalized all three stimuli: normalized to average of group A day 57, n = 36; for PBMC Percent proliferation: n = 12; for Percent proliferation: 2 subjects with largest and smallest day 57-day 1 difference removed, n = 10
Description: (§1) After a screening visit at which blood was drawn to test for IgG antibody against HSV-1 and subjects were interviewed for inclusion/exclusion criteria, selected subjects returned for blood draws on day 1. After the blood draw on day 1, subjects in group A only were dosed with SADBE. A petrolatum donut was applied with a cotton swab to form about a 1 cm diameter donut on skin on the inner aspect of the upper arm. Then a separate cotton swab was dipped in a 2% SADBE solution (w/v) in DMSO, and the swab was then used to apply about 10-20 mg of solution over about a 1 cm diameter circle within the petrolatum donut. Immediately after application, the application site was covered with TEGADERM. Subjects were advised to remove the TEGADERM and rinse and wipe the spot three hours later. The group A subjects then returned for blood draws on days 15 and 57 and were queried about adverse events on those dates.
PBMC were isolated using SepMate PBMC isolation tubes (Stem Cell Technologies, Vancouver, Canada) and Ficoll-Paque according to the manufacturer's instructions. PBMC were isolated and suspended in negative control medium at 2 million cells/ml. PBMC suspension (100 μL) was added to 100 μL of medium in quadruplicate in 96-well plates. The plates were prepared in advance and stored at −70° C. The wells were in five different conditions in quadruplicate with these final concentrations after addition of the 100 μL of PBMC suspension in negative control medium. • 1. Negative control in medium (RPMI with glutamine and pen/strep, supplemented with 10% human A/B serum). • 2. Medium plus 16 μg/ml protein from heat-inactivated HSV-1-infected Vero cell extracts. • 3. Medium plus heat-inactivated HSV-1 cell-free virus at a final 7.5 million pfu/ml. • 4. Medium plus Candida cell extract. (Greer item number M15A50, 20,000 pnu/ml allergenic extract mixed molds Candida albicans, was diluted 1/50 into medium). • 5. Positive control, medium plus 10 μg/ml concanavalin A.
A second plate was incubated for 4 days. On the 4th day 1 μCi of tritiated thymidine in 50 μl of fresh negative control medium was added to each well. After 22 hours incubation the cells were harvested onto a filter mat and each well counted by scintillation counting for tritium incorporation into DNA as a quantitative measure of cell division.
The relative proliferation for each test condition was calculated as (avg. CPM test condition−avg. CPM negative control)/(avg. CPM positive control−avg. CPM negative control). The average CPM is the average tritium counts per minute of the 4 wells in a given test condition for a given collection point of a given patient. To calculate the normalized proliferation to all three stimuli, each data point was converted to a percentage proliferation relative to the average proliferation to that stimulus in group C or group A day 57, whichever was being compared to.
Immediately after the blood collection on day 1, the group A subjects (frequent cold sore sufferers) were treated with one dose of topical 2% SADBE in DMSO applied to the inner aspect of the subject's arm. They returned for blood collection on day 15 and day 57, two and 8 weeks after the single dose of drug. The relative proliferation of PBMC from the group A subjects collected on days 1, 15, and 57, in response to the stimuli, is shown in Table 4.

Interleukin 2 = test: Plasma level of Interleukin 2; format: in vivo, human; conditions: for Interleukin 2 in plasma, group average / Interleukin 2 in plasma, number of subjects with undetectable levels: n = 12
Description: as §1
(§2) At this study visit where blood was drawn it was tested for blood cell counts, various cytokine levels, and anti-HSV-1 IgG quantitative levels.
(§3) All subjects had detectable IL-2 and the large majority had detectable IL-2 receptor.

[2] = test system: Interleukin 2 Receptor (CD25); test: Plasma level of Interleukin 2 Receptor (CD25); format: in vivo, human; conditions: for Interleukin 2 Receptor (CD25) in plasma, number of subjects with undetectable levels / Interleukin 2 Receptor (CD25) in plasma, group average: n = 12; for Interleukin 2 Receptor (CD25) in plasma, number of subjects with undetectable levels: lower limit of detection 9.19 pg/ml; for Interleukin 2 Receptor (CD25) in plasma, group average: undetectable counted as 9.19 pg/ml
Description: as §1, §2, §3
For IL2R the detection limit was 9.19 pg/ml and the number of subjects who measured undetectable are listed. If a subject's IL2R was undetectable, the value of 9.19 pg/ml was used for that subject in detecting the average of the group. No subjects had undetectable IL2.

anti-HSV-1 IgG = test: Serum anti-HSV-1 IgG quantitative levels; format: in vivo, human; conditions: for Level of anti-HSV1 IgG, group average: n = 12
Description: as §1, §2
Anti-HSV-1 IgG was quantified in serum collected at each study visit.

[3] = Rash (erythema) from the sensitization dose (Example 2); format: in vivo, human; conditions: pooled treatment groups B and C; placebo 2 of 13
Excerpt: Visit 1: Upon entering the study, patients are sensitized to squaric acid dibutyl ester (SADBE) by dipping a cotton-tipped swab in a 2% solution of SADBE in DMSO and swabbing a 1 cm^2 area on the forearm. Participants are told then to wait at least 2 weeks for their first treatment.

herpes labialis outbreak = conditions: 2.0% SADBE in DMSO once to arm; placebo 40 days; P=0.009; previous trial (Palli 2017); cited from earlier work

CCCCOc1c(OCCCC)c(=O)c1=O [SADBE, 3,4-Dibutoxy-3-cyclobutene-1,2-dione]
PBMC Percent proliferation, normalized all three stimuli ([1]; group A Day 15): 71.65%
Percent proliferation, normalized all three stimuli ([1]; group A Day 57, largest and smallest difference data points removed, n = 30): 99.97%
PBMC Percent proliferation, normalized all three stimuli ([1]; group A Day 57): 99.97%
PBMC Percent proliferation ([1]; stimulus Candida extract, group A Day 15 after one SADBE treatment): 3.33%
Percent proliferation ([1]; stimulus Candida extract, group A Day 57): 3.19%
PBMC Percent proliferation ([1]; stimulus Candida extract, group A Day 57 after one SADBE treatment): 7.35%
PBMC Percent proliferation ([1]; stimulus HSV-1-infected cell extracts, group A Day 15 after one SADBE treatment): 15.43%
Percent proliferation ([1]; stimulus HSV-1-infected cell extracts, group A Day 57): 15.78%
PBMC Percent proliferation ([1]; stimulus HSV-1-infected cell extracts, group A Day 57 after one SADBE treatment): 16.96%
PBMC Percent proliferation ([1]; stimulus HSV-1 virus, group A Day 15 after one SADBE treatment): 10.52%
Percent proliferation ([1]; stimulus HSV-1 virus, group A Day 57): 12.88%
PBMC Percent proliferation ([1]; stimulus HSV-1 virus, group A Day 57 after one SADBE treatment): 13.37%
Interleukin 2 in plasma, Sample/A1 (Interleukin 2; A15 / group A day 1): 0.96
Interleukin 2 in plasma, Sample minus A1 (Interleukin 2; A15 minus group A day 1): -0.54 pg/mL
Interleukin 2 in plasma, Sample/A1 (Interleukin 2; A57 / group A day 1): 0.84
Interleukin 2 in plasma, Sample minus A1 (Interleukin 2; A57 minus group A day 1): -2.13 pg/mL
Interleukin 2 in plasma, group average (Interleukin 2; group A day 15 (A15)): 12.90 pg/mL
Interleukin 2 in plasma, number of subjects with undetectable levels (Interleukin 2; group A day 15 (A15)): 0
Interleukin 2 in plasma, group average (Interleukin 2; group A day 57 (A57)): 11.30 pg/mL
Interleukin 2 in plasma, number of subjects with undetectable levels (Interleukin 2; group A day 57 (A57)): 0
Interleukin 2 Receptor (CD25) in plasma, Sample/A1 ([2]; A15 / group A day 1): 1.23
Interleukin 2 Receptor (CD25) in plasma, Sample minus A1 ([2]; A15 minus group A day 1): 167.04 pg/mL
Interleukin 2 Receptor (CD25) in plasma, Sample/A1 ([2]; A57 / group A day 1): 0.96
Interleukin 2 Receptor (CD25) in plasma, Sample minus A1 ([2]; A57 minus group A day 1): -26.24 pg/mL
Interleukin 2 Receptor (CD25) in plasma, number of subjects with undetectable levels ([2]; group A day 15 (A15)): 1
Interleukin 2 Receptor (CD25) in plasma, group average ([2]; group A day 15 (A15)): 899.81 pg/mL
Interleukin 2 Receptor (CD25) in plasma, number of subjects with undetectable levels ([2]; group A day 57 (A57)): 0
Interleukin 2 Receptor (CD25) in plasma, group average ([2]; group A day 57 (A57)): 706.52 pg/mL
Level of anti-HSV1 IgG, Sample/A1 (anti-HSV-1 IgG; A15 / group A day 1): 1.13
Level of anti-HSV1 IgG, Sample minus A1 (anti-HSV-1 IgG; A15 minus group A day 1): 1.08 IV
Level of anti-HSV1 IgG, Sample/A1 (anti-HSV-1 IgG; A57 / group A day 1): 0.91
Level of anti-HSV1 IgG, Sample minus A1 (anti-HSV-1 IgG; A57 minus group A day 1): −0.73 IV
change in anti-HSV1 IgG from day 15 to day 57 in group A (anti-HSV-1 IgG; serum, after one SADBE dose, P<0.01): highly significant decrease
Level of anti-HSV1 IgG, group average (anti-HSV-1 IgG; serum, group A day 15 (A15)): 9.39 IV
Level of anti-HSV1 IgG, group average (anti-HSV-1 IgG; serum, group A day 57 (A57)): 7.58 IV
subjects with rash (erythema) from the sensitization dose [3]: 17 of 28
median time to the next outbreak (herpes labialis outbreak): more than 122 days
